# In ChEMBL document CHEMBL4251615, “Discovery of anilino-furo[2,3-d]pyrimidine derivatives as dual inhibitors of EGFR/HER2 tyrosine kinase and their anticancer activity” (Eur J Med Chem, 2018):
# Biological target: T1, Epidermal growth factor receptor (Homo sapiens, UniProt P00533)
# Experiment: Inhibition of recombinant human C-terminal His/N-terminal GST-tagged EGFR (668 to 1210 residues) expressed in baculovirus infected Sf9 cells using biotin-labeled poly[Glu:Tyr] (4:1) as substrate after 30 mins by Kinase-Glo plus luminescence assay
# Conditions: not given
# T1 sequence (P00533 whole entry, the tested form may be a part): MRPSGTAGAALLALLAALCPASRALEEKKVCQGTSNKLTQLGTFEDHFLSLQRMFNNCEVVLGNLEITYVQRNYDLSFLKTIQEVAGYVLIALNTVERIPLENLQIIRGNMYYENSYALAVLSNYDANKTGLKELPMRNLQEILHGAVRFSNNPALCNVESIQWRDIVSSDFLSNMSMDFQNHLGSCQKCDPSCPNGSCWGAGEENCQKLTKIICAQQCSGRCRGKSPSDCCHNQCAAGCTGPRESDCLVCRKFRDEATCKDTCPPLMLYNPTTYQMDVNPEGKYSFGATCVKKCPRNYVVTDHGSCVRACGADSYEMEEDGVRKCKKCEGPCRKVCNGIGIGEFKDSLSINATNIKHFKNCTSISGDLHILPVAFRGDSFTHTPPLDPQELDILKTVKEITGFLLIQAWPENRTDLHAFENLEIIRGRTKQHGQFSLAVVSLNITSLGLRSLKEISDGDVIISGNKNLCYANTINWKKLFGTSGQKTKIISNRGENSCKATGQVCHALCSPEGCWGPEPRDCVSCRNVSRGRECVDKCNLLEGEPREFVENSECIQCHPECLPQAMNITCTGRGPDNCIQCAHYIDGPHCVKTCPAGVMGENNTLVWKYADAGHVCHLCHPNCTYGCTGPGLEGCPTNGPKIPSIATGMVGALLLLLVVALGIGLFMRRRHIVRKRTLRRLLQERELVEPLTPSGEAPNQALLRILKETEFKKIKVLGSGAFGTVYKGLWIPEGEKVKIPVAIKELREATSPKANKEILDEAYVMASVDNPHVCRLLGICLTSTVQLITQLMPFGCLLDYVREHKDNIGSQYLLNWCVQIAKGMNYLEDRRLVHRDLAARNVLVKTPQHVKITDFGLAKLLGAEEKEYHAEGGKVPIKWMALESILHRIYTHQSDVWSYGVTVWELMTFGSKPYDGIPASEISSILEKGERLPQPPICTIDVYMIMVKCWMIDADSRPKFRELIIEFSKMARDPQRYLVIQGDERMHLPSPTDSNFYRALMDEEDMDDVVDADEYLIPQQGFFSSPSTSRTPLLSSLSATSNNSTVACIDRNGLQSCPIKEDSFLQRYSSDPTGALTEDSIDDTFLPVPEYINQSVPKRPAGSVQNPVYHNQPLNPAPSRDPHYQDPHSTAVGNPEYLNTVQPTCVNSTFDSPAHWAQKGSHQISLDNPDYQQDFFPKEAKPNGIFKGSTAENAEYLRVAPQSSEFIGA
row,IC50 [µM],SMILES
1,0.901,Cc1oc2ncnc(Nc3cccc(Cl)c3)c2c1C(=O)O

# Tested on: A549
# Experiment: Cytotoxicity against human A549 cells assessed as reduction in cell viability after 72 hrs by MTT assay
# Format: functional, cell-based
# Conditions: A549, 72 h
row,SMILES,IC50 [µM]
1,CCOC(=O)c1c(C)oc2ncnc(Nc3cccc(OC)c3)c12,> 1000
2,CCOC(=O)c1c(C)oc2ncnc(Nc3cccc(Cl)c3)c12,> 1000
3,C#Cc1cccc(Nc2ncnc3oc(C)c(C(=O)OCC)c23)c1,> 1000
4,Cc1oc2ncnc(Nc3ccccc3)c2c1C(=O)O,191
5,CCOC(=O)c1c(C)oc2ncnc(Nc3cccc(Br)c3)c12,> 1000
6,Cc1oc2ncnc(Nc3cccc(Cl)c3)c2c1C(=O)O,95.5

# Tested on: MCF7
# Experiment: Cytotoxicity against human MCF7 cells assessed as reduction in cell viability after 72 hrs by MTT assay
# Format: functional, cell-based
# Conditions: MCF7, 72 h
row,SMILES,IC50 [µM]
1,CCOC(=O)c1c(C)oc2ncnc(Nc3cccc(OC)c3)c12,> 1000
2,CCOC(=O)c1c(C)oc2ncnc(Nc3cccc(Cl)c3)c12,> 1000
3,C#Cc1cccc(Nc2ncnc3oc(C)c(C(=O)OCC)c23)c1,> 1000
4,Cc1oc2ncnc(Nc3ccccc3)c2c1C(=O)O,246
5,CCOC(=O)c1c(C)oc2ncnc(Nc3cccc(Br)c3)c12,> 1000
6,Cc1oc2ncnc(Nc3cccc(Cl)c3)c2c1C(=O)O,57.5

# Biological target: T1, Epidermal growth factor receptor
# Experiment: Inhibition of recombinant human C-terminal His/N-terminal GST-tagged EGFR (668 to 1210 residues) expressed in baculovirus infected Sf9 cells at 10 uM using biotin-labeled poly[Glu:Tyr] (4:1) as substrate after 30 mins by Kinase-Glo plus luminescence assay relative to control
# Conditions: not given
row,inhibition [%],SMILES
1,6,CCOC(=O)c1c(C)oc2ncnc(Nc3cccc(OC)c3)c12
2,28,CCOC(=O)c1c(C)oc2ncnc(Nc3cccc(Cl)c3)c12
3,26,C#Cc1cccc(Nc2ncnc3oc(C)c(C(=O)OCC)c23)c1
4,30,Cc1oc2ncnc(Nc3ccccc3)c2c1C(=O)O
5,26,CCOC(=O)c1c(C)oc2ncnc(Nc3cccc(Br)c3)c12
6,85,Cc1oc2ncnc(Nc3cccc(Cl)c3)c2c1C(=O)O
